Measurements from ChEMBL document CHEMBL1123443, “Synthesis and evaluation of 1-(arylsulfonyl)-2-[(methoxycarbonyl)sulfenyl]-1-methylhydrazines++ + as antineoplastic agents” (1986).

Key:
Type in all cases: functional, Mus musculus
L1210 [1] = assay: Effect of compound on the body weight of mice bearing the L1210 leukemia at a daily dose of 12.5-50 mg/kg
B16 [2] = assay: Effect of compound on the body weight of mice bearing the B16 melanoma at a daily dose of 12.5 mg/kg
B16 [3] = assay: Effect of compound on the body weight of mice bearing the B16 melanoma at a daily dose of 50 mg/kg
B16 [4] = assay: Effect of compound on the body weight of mice bearing the B16 melanoma at a daily dose of 25 mg/kg
B16 [5] = assay: Effect of compound on the survival time of mice bearing the B16 melanoma at a daily dose of 25 mg/kg
B16 [6] = assay: Effect of compound on the survival time of mice bearing the B16 melanoma at a daily dose of 12.5 mg/kg
L1210 [7] = assay: Effect of compound on the survival time of mice bearing the L1210 leukemia at a daily dose (mg/kg) of 12.5-50
B16 [8] = assay: Effect of compound on the survival time of mice bearing the B16 melanoma at a daily dose (mg/kg) of 50
L1210 [9] = assay: Effect of compound on the survival time of mice bearing the L1210 leukemia at a daily dose of 12.5-50 mg/kg
B16 [10] = assay: Effect of compound on the survival time of mice bearing the B16 melanoma at a daily dose of 50 mg/kg
B16 [11] = assay: Effect of compound on the survival time of mice bearing the B16 melanoma at a daily dose of 100 mg/kg
B16 [12] = assay: Effect of compound on the body weight of mice bearing the B16 melanoma at a daily dose of 150 mg/kg
B16 [13] = assay: Effect of compound on the body weight of mice bearing the B16 melanoma at a daily dose of 100 mg/kg
B16 [14] = assay: Effect of compound on the survival time of mice bearing the B16 melanoma at a daily dose of 150 mg/kg
B16 [15] = assay: Effect of compound on the survival time of mice bearing the B16 melanoma at a daily dose (mg/kg) of,50

SMILES | Change in weight (L1210 [1]) | Change in weight (B16 [2]) | Change in weight (B16 [3]) | Change in weight (B16 [4]) | T/C (B16 [5]) | T/C (B16 [6]) | T/C (L1210 [7]) | T/C (B16 [8]) | T/C (L1210 [9]) | T/C (B16 [10]) | T/C (B16 [11]) | Change in weight (B16 [12]) | Change in weight (B16 [13]) | T/C (B16 [14]) | T/C (B16 [15])
COC(=O)SNN(C)S(=O)(=O)c1ccc(OC)cc1 | -6.7% | -0.2% | -18.7% | -6.4% | 160% | 148% | 149% | 177% | – | – | – | – | – | – | –
COC(=O)SNN(C)S(=O)(=O)c1ccc2ccccc2c1 | – | -0.2% | -4.8% | 1.4% | 140% | 123% | – | 163% | – | – | – | – | – | – | –
COC(=O)SNN(C)S(=O)(=O)c1ccc(Br)cc1 | -0.2% | -2% | -11.4% | -5.5% | 146% | 144% | 122% | 160% | – | – | – | – | – | – | –
COC(=O)SNN(C)S(=O)(=O)c1ccccc1 | -10.9% | -5.2% | -33.4% | -13% | 183% | 169% | – | – | 113% | 49% | – | – | – | – | –
COC(=O)SNN(C)S(=O)(=O)c1ccc(C)cc1 | -4.2% | 0.7% | -17.7% | -3.3% | 199% | 182% | 118% | 232% | – | – | – | – | – | – | –
COC(=O)SNNS(=O)(=O)c1ccc(C)cc1 | – | 1.6% | -0.4% | 3.7% | 113% | 100% | – | 98% | – | – | – | – | – | – | –
COC(=O)SNN(C)S(=O)(=O)Cc1ccccc1 | -8% | -2.5% | -27.4% | -14.8% | 157% | 152% | 100% | 59% | – | – | – | – | – | – | –
CN(C)/N=N/c1[nH]cnc1C(N)=O [DACARBAZINE] | – | -2.3% | – | – | – | – | – | – | – | – | 161% | -5.7% | -4.4% | 177% | 135%
